Reference: US11807693B2 (priority 2014, dated 2023)
Where two headings read alike, the source gives them in different places. Starred links: 1 amine or outer side, 2 acyl side, 3 side chain; linkers in the order of their positions; H or OH if unused. Non-standard residues stand in square brackets, D forms with d. Residues, ends and D or L forms follow the SMILES beside them. *: point of attachment. dBip = N[C@H](Cc1ccc(-c2ccccc2)cc1)C(=O)O; Oic = O=C(O)[C@@H]1C[C@@H]2CCCC[C@@H]2N1; Phe(4-Cl) = N[C@@H](Cc1ccc(Cl)cc1)C(=O)O; dPhe(4-Cl) = N[C@H](Cc1ccc(Cl)cc1)C(=O)O; Phe(4-I) = N[C@@H](Cc1ccc(I)cc1)C(=O)O; γGlu = O=C(O)[C@H](CCC(=O)[*:2])N[*:1]; NMeR = CN[C@@H](CCCNC(=N)N)C(=O)O; Tridecanoyl = CCCCCCCCCCCCC(=O)*; hArg = N=C(N)NCCCC[C@H](N)C(=O)O; Cha = N[C@@H](CC1CCCCC1)C(=O)O; NMeL = CN[C@@H](CC(C)C)C(=O)O; β3hN = NC(=O)C[C@H](N)CC(=O)O; Nle = CCCC[C@H](N)C(=O)O; Orn = NCCC[C@H](N)C(=O)O; AEEA = NCCOCCOCC(=O)O

Biological target: T1, rat APJ receptor (Rattus norvegicus, UniProt Q9JHG3)
T1 construct: expressed in transfected cells
T1 sequence (Q9JHG3 1-377): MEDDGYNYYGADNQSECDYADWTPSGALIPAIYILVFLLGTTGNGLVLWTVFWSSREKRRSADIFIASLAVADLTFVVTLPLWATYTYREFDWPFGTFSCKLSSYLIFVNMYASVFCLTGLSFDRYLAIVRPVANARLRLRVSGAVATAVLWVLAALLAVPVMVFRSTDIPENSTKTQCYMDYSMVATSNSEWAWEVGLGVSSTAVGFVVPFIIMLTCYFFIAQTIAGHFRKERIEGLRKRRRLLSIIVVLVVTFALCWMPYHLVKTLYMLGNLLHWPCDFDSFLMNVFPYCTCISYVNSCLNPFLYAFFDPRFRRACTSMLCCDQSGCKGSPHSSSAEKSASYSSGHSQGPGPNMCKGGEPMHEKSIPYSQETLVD
Experiment: [35S] GTPγS assay, rat APJ receptor
Assay type: biochemical
Conditions: read-out: EC50 Rat APJ Receptor
Method: The membranes were incubated with modified peptides in the assay buffer. […] Bound [^35S] GTPγS was separated from free radiolabel by filtration. The filter bound radioactivity was determined by liquid scintillation counting.

EC50 (rat APJ receptor) | EC50 | SMILES
5.81 nM |  | CSCC[C@H](NC(=O)[C@@H]1CCCN1C(=O)CNC(=O)[C@H](CCCCN)NC(=O)[C@H](Cc1c[nH]cn1)NC(=O)[C@H](CO)NC(=O)[C@H](CC(C)C)NC(=O)[C@H](CCCNC(=N)N)NC(=O)[C@@H]1CCCN1C(=O)[C@H](CCCNC(=N)N)NC(=O)[C@H](CCC(N)=O)NC(=O)[C@H](CCCNC(=N)N)NC(=O)[C@H](CCCNC(=N)N)NC(=O)[C@H](Cc1ccccc1)NC(=O)[C@@H](N)CCCCN)C(=O)N1CCC[C@H]1C(=O)O [compound 12]
 | 1.8 nM | CC(=O)N[C@@H](CCCCNC(=N)N)C(=O)N[C@@H](CCCCNC(=N)N)C(=O)N[C@@H](CCC(N)=O)C(=O)N[C@@H](CCCCNC(=N)N)C(=O)N1[C@H](C(=O)N[C@H](CCCNC(=N)N)C(=O)N(C)[C@@H](CC(C)C)C(=O)N[C@@H](CO)C(=O)N[C@@H](Cc2c[nH]cn2)C(=O)N[C@@H](CCCCN)C(=O)NCC(=O)N2[C@H](C(=O)N[C@@H](Cc3ccc(I)cc3)C(=O)N3CCC[C@H]3C(=O)N[C@H](Cc3ccc(-c4ccccc4)cc3)C(=O)O)C[C@@H]3CCCC[C@@H]32)C[C@@H]2CCCC[C@@H]21 [compound 21] (Ac-[hArg][hArg]Q[hArg][Oic][dR][NMeL]SHKG[Oic][Phe(4-I)]P[dBip]-OH)
 | 0.486 nM | CCCC[C@H](NC(=O)[C@@H]1CCCN1C(=O)CNC(=O)[C@H](CCCCN)NC(=O)[C@H](Cc1c[nH]cn1)NC(=O)[C@H](CO)NC(=O)[C@H](CC1CCCCC1)NC(=O)[C@H](CCCCNC(=N)N)NC(=O)[C@@H]1CCCN1C(=O)[C@H](CCCNC(=N)N)NC(=O)[C@H](CCC(N)=O)NC(=O)[C@H](CCCCNC(=N)N)NC(=O)[C@H](CCCCNC(=N)N)NC(=O)[C@H](Cc1ccccc1)NC(=O)[C@H](CCCN)NC(C)=O)C(=O)N[C@@H](Cc1ccc(Cl)cc1)C(=O)O [compound 48] (Ac-[Orn]F[hArg][hArg]QRP[hArg][Cha]SHKGP[Nle][Phe(4-Cl)]-OH)
0.411 nM |  | CCCC[C@H](NC(=O)[C@@H]1CCCN1C(=O)CNC(=O)[C@H](CCCCN)NC(=O)[C@H](Cc1c[nH]cn1)NC(=O)[C@H](CO)NC(=O)[C@H](CC(C)C)N(C)C(=O)[C@H](CCCNC(=N)N)NC(=O)[C@@H]1CCCN1C(=O)[C@H](CCCNC(=N)N)NC(=O)[C@H](CCC(N)=O)NC(=O)[C@H](CCCNC(=N)N)NC(C)=O)C(=O)N1CCC[C@H]1C(=O)N[C@@H](Cc1ccc(Cl)cc1)C(=O)O [compound 64] (Ac-RQRPR[NMeL]SHKGP[Nle]P[Phe(4-Cl)]-OH)
1.4 nM |  | CCCC[C@H](NC(=O)[C@@H]1CCCN1C(=O)CNC(=O)[C@H](CCCCN)NC(=O)[C@H](Cc1c[nH]cn1)NC(=O)[C@H](CO)NC(=O)[C@H](CC(C)C)N(C)C(=O)[C@H](CCCNC(=N)N)N(C)C(=O)[C@@H]1CCCN1C(=O)[C@H](CCCNC(=N)N)NC(=O)[C@H](CCC(N)=O)NC(=O)[C@H](CCCNC(=N)N)NC(C)=O)C(=O)N1CCC[C@H]1C(=O)N[C@@H](Cc1ccc(Cl)cc1)C(=O)O [compound 67] (Ac-RQRP[NMeR][NMeL]SHKGP[Nle]P[Phe(4-Cl)]-OH)
14.6 nM |  | CCCCCCCCCCCCC(=O)N[C@@H](CCC(=O)NCCOCCOCC(=O)NCCOCCOCC(=O)N[C@@H](CC(N)=O)CC(=O)N[C@@H](CCCCNC(=N)N)C(=O)N1CCC[C@H]1C(=O)N(C)[C@@H](CCCNC(=N)N)C(=O)N[C@@H](CC1CCCCC1)C(=O)N[C@@H](CO)C(=O)N[C@@H](Cc1c[nH]cn1)C(=O)N[C@@H](CCCCN)C(=O)NCC(=O)N1[C@H](C(=O)N[C@@H](CCCC)C(=O)N2CCC[C@H]2C(=O)N[C@H](Cc2ccc(Cl)cc2)C(=O)O)C[C@@H]2CCCC[C@@H]21)C(=O)O [compound 299] ({Tridecanoyl-γGlu-AEEA-AEEA}-[β3hN][hArg]P[NMeR][Cha]SHKG[Oic][Nle]P[dPhe(4-Cl)]-OH)
46 nM |  | CCCCCCCCCCCCC(=O)N[C@@H](CCC(=O)NCCOCCOCC(=O)NCCOCCOCC(=O)N[C@@H](CCCCNC(=N)N)C(=O)N[C@H](CCCNC(=N)N)C(=O)N[C@@H](CCC(N)=O)C(=O)N[C@@H](CCCCNC(=N)N)C(=O)N1CCC[C@H]1C(=O)N[C@H](CCCNC(=N)N)C(=O)N(C)[C@@H](CC(C)C)C(=O)N[C@@H](C)C(=O)N[C@@H](Cc1c[nH]cn1)C(=O)N[C@@H](CCCC)C(=O)NCC(=O)N1[C@H](C(=O)N[C@@H](Cc2ccc(I)cc2)C(=O)N2CCC[C@H]2C(=O)N[C@H](Cc2ccc(-c3ccccc3)cc2)C(=O)O)C[C@@H]2CCCC[C@@H]21)C(=O)O [compound 318] ({Tridecanoyl-γGlu-AEEA-AEEA}-[hArg][dR]Q[hArg]P[dR][NMeL]AH[Nle]G[Oic][Phe(4-I)]P[dBip]-OH)
